Measured values taken from patent publication US7772241B2, “Variolin derivatives and their use as antitumor agents” (Pharma Mar S.A., priority 2001, dated 2010).
Read-outs that look alike come from different tables or passages of the source.

Tests used:
PANC-1 = experiment: Inhibition of cells growth by colorimetric (SRB) assay, PANC-1
Procedure, shortened: (§1)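 Read-out is sulforhodamine B protein stain (OD 490 nm) after cold TCA fixation, following 48 h continuous exposure to samples spanning 10 to 10^−8 μg/ml.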

SK-BR-3 = experiment: Inhibition of cells growth by colorimetric (SRB) assay, SK-BR-3
Procedure, shortened: as §1

LNCaP = experiment: Inhibition of cells growth by colorimetric (SRB) assay, LNCaP
Procedure, shortened: as §1

HeLa = experiment: Inhibition of cells growth by colorimetric (SRB) assay, HeLa
Procedure, shortened: as §1

[1] = Inhibition of cells growth by colorimetric (SRB) assay, HMEC1; conditions: human, HMEC1 cells, LC50 H-MEC-1, SRB assay, 48 hours exposure
HMEC1 = experiment: as above
LoVo = experiment: Inhibition of cells growth by colorimetric (SRB) assay, LoVo
Procedure, shortened: as §1

DU-145 = experiment: Inhibition of cells growth by colorimetric (SRB) assay, DU-145
Procedure, shortened: as §1

SK-MEL-28 = experiment: Inhibition of cells growth by colorimetric (SRB) assay, SK-MEL-28
Procedure, shortened: as §1

IGROV-ET = experiment: Inhibition of cells growth by colorimetric (SRB) assay, IGROV-ET
Procedure, shortened: as §1

HeLa-APL = experiment: Inhibition of cells growth by colorimetric (SRB) assay, HeLa-APL
Procedure, shortened: as §1

K-562 = experiment: Inhibition of cells growth by colorimetric (SRB) assay, K-562
Procedure, shortened: as §1

A-549 = experiment: Inhibition of cells growth by colorimetric (SRB) assay, A-549
Procedure, shortened: as §1

IGROV-1 = experiment: Inhibition of cells growth by colorimetric (SRB) assay, IGROV-1
Procedure, shortened: as §1

HT-29 = experiment: Inhibition of cells growth by colorimetric (SRB) assay, HT-29
Procedure, shortened: as §1

LoVo-Dox = experiment: Inhibition of cells growth by colorimetric (SRB) assay, LoVo-Dox
Procedure, shortened: as §1

With `CSc1nccc(-c2c3c(O)ccnc3n3c(N)nccc23)n1` [Compound 95] the “PANC-1 TGI” value (PANC-1; SRB assay, 48 hours exposure) was 3.08E−05, the GI50 (PANC-1; read-out: PANC-1 GI50, SRB assay, 48 hours exposure) was 24.2 µM and the CC50 (PANC-1; read-out: PANC-1 LC50, SRB assay, 48 hours exposure) was at least 30.8 µM. The “SK-BR-3 TGI” value (SK-BR-3; SRB assay, 48 hours exposure) was 3.08E−05, the GI50 (SK-BR-3; read-out: SK-BR-3 GI50, SRB assay, 48 hours exposure) was 1.52 µM and the CC50 (SK-BR-3; read-out: SK-BR-3 LC50, SRB assay, 48 hours exposure) was at least 30.8 µM. The “LN-caP TGI” value (LNCaP; SRB assay, 48 hours exposure) was 3.08E−05, the GI50 (LNCaP; read-out: LN-caP GI50, SRB assay, 48 hours exposure) was 4.1 µM and the CC50 (LNCaP; read-out: LN-caP LC50, SRB assay, 48 hours exposure) was at least 30.8 µM. The “HELA TGI” value (HeLa; SRB assay, 48 hours exposure) was 2.57E−08, the GI50 (HeLa; read-out: HELA GI50, SRB assay, 48 hours exposure) was 0.00916 µM and the CC50 at 48 h [1] was at least 30.8 µM. The GI50 (HMEC1; Homo sapiens, HMEC-1, 48 h, read-out: GI50 H-MEC-1, SRB assay, 48 hours exposure) was at least 30.8 µM, the “TGI H-MEC-1” value (HMEC1; SRB assay, 48 hours exposure, in M (unit assumed)) was 3.08E−05 and the “LOVO TGI” value (LoVo; SRB assay, 48 hours exposure) was 3.08E−05. For the same molecule, the GI50 (LoVo; read-out: LOVO GI50, SRB assay, 48 hours exposure) was 11.3 µM, the CC50 (LoVo; read-out: LOVO LC50, SRB assay, 48 hours exposure) was at least 30.8 µM and the “DU-145 TGI” value (DU-145; SRB assay, 48 hours exposure) was 3.08E−05. For the same molecule, the GI50 (DU-145; read-out: DU-145 GI50, SRB assay, 48 hours exposure) was 10.2 µM, the CC50 (DU-145; read-out: DU-145 LC50, SRB assay, 48 hours exposure) was at least 30.8 µM and the “MEL-28 TGI” value (SK-MEL-28; SRB assay, 48 hours exposure) was 3.08E−05. For the same molecule, the GI50 (SK-MEL-28; read-out: MEL-28 GI50, SRB assay, 48 hours exposure) was at least 30.8 µM, the CC50 (SK-MEL-28; read-out: MEL-28 LC50, SRB assay, 48 hours exposure) was at least 30.8 µM and the “IGROV-ET TGI” value (IGROV-ET; SRB assay, 48 hours exposure) was 3.08E−05. The GI50 (IGROV-ET; read-out: IGROV-ET GI50, SRB assay, 48 hours exposure) was 3.95 µM, the CC50 (IGROV-ET; read-out: IGROV-ET LC50, SRB assay, 48 hours exposure) was at least 30.8 µM and the “HELA-APL TGI” value (HeLa-APL; SRB assay, 48 hours exposure) was 1.31E−08. For the same molecule, the GI50 (HeLa-APL; read-out: HELA-APL GI50, SRB assay, 48 hours exposure) was 0.00546 µM, the CC50 (HeLa-APL; read-out: HELA-APL LC50, SRB assay, 48 hours exposure) was 0.0382 µM and the “K-562 TGI” value (K-562; SRB assay, 48 hours exposure) was 3.08E−05. It also gave a GI50 (K-562; read-out: K-562 GI50, SRB assay, 48 hours exposure) of at least 30.8 µM, a CC50 (K-562; read-out: K-562 LC50, SRB assay, 48 hours exposure) of at least 30.8 µM and a GI50 (A-549; Homo sapiens, A549, 48 h, read-out: GI50 A-549, SRB assay, 48 hours exposure) of at least 30.8 µM. For the same molecule, the CC50 (A-549; Homo sapiens, A549, 48 h, read-out: LC50 A-549, SRB assay, 48 hours exposure) was at least 30.8 µM, the “A-549 TGI” value (A-549; SRB assay, 48 hours exposure) was 3.08E−05 and the “TGI A-549” value (A-549; SRB assay, 48 hours exposure) was 3.08E−05. The GI50 (A-549; read-out: A-549 GI50, SRB assay, 48 hours exposure) was 8.63 µM, the CC50 (A-549; read-out: A-549 LC50, SRB assay, 48 hours exposure) was at least 30.8 µM and the “IGROV TGI” value (IGROV-1; SRB assay, 48 hours exposure) was 3.08E−05. It also gave a GI50 (IGROV-1; read-out: IGROV GI50, SRB assay, 48 hours exposure) of at least 30.8 µM, a CC50 (IGROV-1; read-out: IGROV LC50, SRB assay, 48 hours exposure) of at least 30.8 µM and a GI50 (HT-29; Homo sapiens, HT-29, 48 h, read-out: GI50 HT-29, SRB assay, 48 hours exposure) of at least 30.8 µM. For the same molecule, the CC50 (HT-29; Homo sapiens, HT-29, 48 h, read-out: LC50 HT-29, SRB assay, 48 hours exposure) was at least 30.8 µM, the “HT-29 TGI” value (HT-29; SRB assay, 48 hours exposure) was 3.08E−05 and the “TGI HT-29” value (HT-29; SRB assay, 48 hours exposure) was 3.08E−05. For the same molecule, the GI50 (HT-29; read-out: HT-29 GI50, SRB assay, 48 hours exposure) was at least 30.8 µM, the CC50 (HT-29; read-out: HT-29 LC50, SRB assay, 48 hours exposure) was at least 30.8 µM and the “LOVO-DOX TGI” value (LoVo-Dox; SRB assay, 48 hours exposure) was 3.08E−05. The GI50 (LoVo-Dox; read-out: LOVO-DOX GI50, SRB assay, 48 hours exposure) was at least 30.8 µM and the CC50 (LoVo-Dox; read-out: LOVO-DOX LC50, SRB assay, 48 hours exposure) was at least 30.8 µM.
In the case of `Nc1nccc(-c2c3cccnc3n3c(N)nccc23)n1` [Deoxyvariolin 4, deoxyvariolin B, reference compound], the GI50 (PANC-1; Homo sapiens, PANC-1, 48 h, read-out: PANC-1 GI50, SRB assay, 48 hours exposure) is reported as 0.162 µM, the CC50 (PANC-1; Homo sapiens, PANC-1, 48 h, read-out: PANC-1 LC50, SRB assay, 48 hours exposure) is reported as 15.4 µM and the “PANC-1 TGI” value (PANC-1; SRB assay, 48 hours exposure) is reported as 1.76E−06. For the same molecule, the GI50 (SK-BR-3; Homo sapiens, SK-BR-3, 48 h, read-out: SK-BR-3 GI50, SRB assay, 48 hours exposure) was 0.0736 µM, the CC50 (SK-BR-3; Homo sapiens, SK-BR-3, 48 h, read-out: SK-BR-3 LC50, SRB assay, 48 hours exposure) was 0.345 µM and the “SK-BR-3 TGI” value (SK-BR-3; SRB assay, 48 hours exposure) was 1.59E−07. The GI50 (LNCaP; Homo sapiens, LNCaP, 48 h, read-out: LN-caP GI50, SRB assay, 48 hours exposure) was 0.0642 µM, the CC50 (LNCaP; Homo sapiens, LNCaP, 48 h, read-out: LN-caP LC50, SRB assay, 48 hours exposure) was 0.272 µM and the “LN-caP TGI” value (LNCaP; SRB assay, 48 hours exposure) was 1.32E−07. The GI50 (HeLa; Homo sapiens, HeLa, 48 h, read-out: HELA GI50, SRB assay, 48 hours exposure) was 0.0811 µM, the “HELA TGI” value (HeLa; SRB assay, 48 hours exposure) was 1.60E−07 and the GI50 (LoVo; Homo sapiens, LoVo, 48 h, read-out: LOVO GI50, SRB assay, 48 hours exposure) was 0.102 µM. The CC50 (LoVo; Homo sapiens, LoVo, 48 h, read-out: LOVO LC50, SRB assay, 48 hours exposure) was 22.1 µM, the “LOVO TGI” value (LoVo; SRB assay, 48 hours exposure) was 2.54E−07 and the GI50 (DU-145; Homo sapiens, DU-145, 48 h, read-out: DU-145 GI50, SRB assay, 48 hours exposure) was 0.0952 µM. For the same molecule, the CC50 (DU-145; Homo sapiens, DU-145, 48 h, read-out: DU-145 LC50, SRB assay, 48 hours exposure) was 5.3 µM, the “DU-145 TGI” value (DU-145; SRB assay, 48 hours exposure) was 2.46E−07 and the GI50 (SK-MEL-28; Homo sapiens, SK-MEL-28, 48 h, read-out: MEL-28 GI50, SRB assay, 48 hours exposure) was 0.0692 µM. The CC50 (SK-MEL-28; Homo sapiens, SK-MEL-28, 48 h, read-out: MEL-28 LC50, SRB assay, 48 hours exposure) was 0.321 µM, the “MEL-28 TGI” value (SK-MEL-28; SRB assay, 48 hours exposure) was 1.49E−07 and the GI50 (IGROV-ET; Homo sapiens, 48 h, read-out: IGROV-ET GI50, SRB assay, 48 hours exposure) was 0.129 µM. The CC50 (IGROV-ET; Homo sapiens, 48 h, read-out: IGROV-ET LC50, SRB assay, 48 hours exposure) was 22.9 µM, the “IGROV-ET TGI” value (IGROV-ET; SRB assay, 48 hours exposure) was 3.42E−07 and the GI50 (HeLa-APL; Homo sapiens, 48 h, read-out: HELA-APL GI50, SRB assay, 48 hours exposure) was 0.066 µM. The CC50 (HeLa-APL; Homo sapiens, 48 h, read-out: HELA-APL LC50, SRB assay, 48 hours exposure) was 0.318 µM, the “HELA-APL TGI” value (HeLa-APL; SRB assay, 48 hours exposure) was 1.45E−07 and the GI50 (K-562; Homo sapiens, K562, 48 h, read-out: K-562 GI50, SRB assay, 48 hours exposure) was 0.727 µM. For the same molecule, the CC50 (K-562; Homo sapiens, K562, 48 h, read-out: K-562 LC50, SRB assay, 48 hours exposure) was 24.6 µM, the “K-562 TGI” value (K-562; SRB assay, 48 hours exposure) was 2.20E−06 and the GI50 (A-549; Homo sapiens, A549, 48 h, read-out: A-549 GI50, SRB assay, 48 hours exposure) was 0.0638 µM. The CC50 (A-549; Homo sapiens, A549, 48 h, read-out: A-549 LC50, SRB assay, 48 hours exposure) was 12.2 µM, the “A-549 TGI” value (A-549; SRB assay, 48 hours exposure) was 2.62E−07 and the GI50 (IGROV-1; Homo sapiens, IGROV-1, 48 h, read-out: IGROV GI50, SRB assay, 48 hours exposure) was 0.0808 µM. For the same molecule, the CC50 (IGROV-1; Homo sapiens, IGROV-1, 48 h, read-out: IGROV LC50, SRB assay, 48 hours exposure) was 1.32 µM, the “IGROV TGI” value (IGROV-1; SRB assay, 48 hours exposure) was 8.10E−08 and the GI50 (HT-29; Homo sapiens, HT-29, 48 h, read-out: HT-29 GI50, SRB assay, 48 hours exposure) was 0.117 µM. For the same molecule, the CC50 (HT-29; Homo sapiens, HT-29, 48 h, read-out: HT-29 LC50, SRB assay, 48 hours exposure) was 11.3 µM, the “HT-29 TGI” value (HT-29; SRB assay, 48 hours exposure) was 4.98E−07 and the GI50 (LoVo-Dox; Homo sapiens, 48 h, read-out: LOVO-DOX GI50, SRB assay, 48 hours exposure) was 0.101 µM. The CC50 (LoVo-Dox; Homo sapiens, 48 h, read-out: LOVO-DOX LC50, SRB assay, 48 hours exposure) was 36.1 µM and the “LOVO-DOX TGI” value (LoVo-Dox; SRB assay, 48 hours exposure) was 2.96E−07.
